From US20110129508A1 (priority 2008, published 2011) come the findings set out here.

For data set [1] the following is noted: male, Wistar (HsdBrlHan WIST), rat, in vivo, ip.
Data set [2] concerns rat model of prostate bone cancer pain. The experiment in a line: animal or person. In kind it is in vivo, Male Wistar rats. The conditions noted are these: for ED50: Rattus norvegicus.
For data set [3], the system named is streptozotocin-induced diabetic neuropathy model of neuropathic pain. The conditions noted are these: rat, in vivo, ip, 2.5 mg/kg.
Data set [4] concerns rat model of diabetic neuropathic pain. Set-up: species or system rats. To be noted: in vivo.
The conditions of data set [5]: rat, in vivo.

Each structure is given as a SMILES string. “Also recorded” adds a separate entry of the source. Where two headings read alike, the source gives them in different places.

In data set [1], `CN1CC[C@]23c4c5ccc(O)c4O[C@H]2[C@@H](O)C=C[C@H]3[C@H]1C5` [morphine] came in with a maximum non-sedating dose of 5 mg/kg. Also, the ED50 in data set [2] (ip) and in data set [2] (read-out: ED50 Mean) was 0.735 mg/kg throughout. In addition, the antinociception result in data set [2] (rat, in vivo, ip) was “dose related antinociception; also recorded: dose related antinociceptive effects”. For the same compound, in data set [2] (rat, in vivo, ip, 5 mg/kg), the reversal of hyperalgesia was 73%.
Turning to `CCOC(=O)Nc1ccc(NCc2ccc(F)cc2)nc1N` [flupirtine], the reversal in hyperalgesia entry in data set [3] is listed as “over 20%”. In addition, in data set [4], the reversal of hyperalgesia is listed as 8±8%. This compound also showed a mean rest times in data set [5] of 943.83 s. In addition, the ED50 in data set [2] (ip) and in data set [2] (read-out: ED50 Mean) was 3.32 mg/kg throughout.
